Source: patent publication US12084445B2, “Broad-spectrum carbapenems” (VenatoRx Pharmaceuticals, Inc., priority 2018, dated 2024)
Like-named read-outs stand apart in the source and are kept apart here.

Key:
Type in all cases: cell-based
[1] = system: S. aureus USA 300; assay: broth microdilution MIC assay, S. aureus USA 300; conditions: Staphylococcus aureus; Table 4; S. aureus USA300; read-out: S. aureus USA300 MIC
Method in brief: (§1)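 CLSI broth microdilution in cation-supplemented Mueller-Hinton broth, starting inoculum 5×10^5 CFU/mL, 2-fold compound dilutions. Incubation 16-20 h at 37 °C; MIC read visually as the lowest concentration with no growth.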

[2] = system: S. aureus ATCC 33591 (methicillin-resistant); assay: broth microdilution MIC assay, S. aureus ATCC 33591; conditions: Staphylococcus aureus
Method in brief: as §1

[3] = system: P. aeruginosa ATCC 27853 (wild-type/QC strain); assay: broth microdilution MIC assay, P. aeruginosa ATCC 27853; conditions: Pseudomonas aeruginosa, ATCC27853, P. aeruginosa 27853, read-out: P. aeruginosa 27853 MIC
Method in brief: as §1

[4] = system: P. aeruginosa PA 3 (a clinical isolate of reduced carbapenem susceptibility); assay: broth microdilution MIC assay, P. aeruginosa PA 3; conditions: Pseudomonas aeruginosa; Table 5; P. aeruginosa PA3
Method: (§2) To determine the ability of test compounds to potentiate the inhibition of the growth of bacterial strains, classic cell-based broth microdilution MIC assays were employed. MIC assays are performed according to CLSI methods except where otherwise noted (CLSI, 2011 and CLSI, 2009). The reference strains S. aureus ATCC 29213 (methicillin sensitive), S. aureus ATCC 33591 (methicillin-resistant), E. coli ATCC 25922 (wild-type/QC strain), P. aeruginosa ATCC 27853 (wild-type/QC strain), and the clinical isolate P. aeruginosa PA 8 were used to determine the ability of the exemplary carbapenem compounds to inhibit bacterial growth. An expanded panel of methicillin resistance S. aureus (MRSA) and Pseudomonas was also used to determine the ability of exemplary carbapenem compounds to inhibit bacterial growth across a broader representation of those species. To determine activity in MRSA and in addition to S. aureus ATCC 33591, S. aureus USA 300, USA 400 and USA 600, some of the most common clones found to cause human infection, were also used. To further gauge the impact on the carbapenem compounds due to various resistance mechanisms in Pseudomonas, the following strains were included: P. aeruginosa 35151 (hyper-permeable strain), P. aeruginosa AmexAB-OprM (an efflux pump knockout), and P. aeruginosa PA 3 (a clinical isolate of reduced carbapenem susceptibility). Briefly, cryo-preserved bacterial cultures of clinical strains are streaked for isolation on appropriate agar medium, in this case Mueller Hinton II agar. Following incubation to allow formation of colonies, these plates are sealed with parafilm and stored refrigerated for up to two weeks. For preparation of assay inocula and to ensure low variability, at least 5 colonies are picked from the agar plates with an inoculating loop and aseptically transferred to a culture tube containing 3 mL of Mueller-Hinton Broth (supplemented with divalent cations to required levels based on Manufacturers' specification). The broth culture is grown for 3-5 hours at 37° C. with shaking at 200 rpm. Meanwhile, 2-fold serial dilutions of test compounds are conducted in a 96 well plate with a final volume of 75 μL per well at 2-fold the final desired concentration. After the dilution plates are set up the growing cultures are then diluted in a cuvette containing MH II broth and the optical density is measured at 600 nm. Inocula are diluted such that 75 μL of this culture in Mueller-Hinton Broth results in a starting bacterial concentration of 5×10^5 CFU/mL when added to the dilution plates. The plates are incubated 16-20 hours at 37° C. The MIC is read visually as the lowest concentration well with no bacterial growth.
(§3) Representative results are shown in Tables 3, 4, and 5 where A represents an MIC>32 μg/mL, B represents an MIC between 8 and 32 μg/mL inclusive, C represents an MIC between 1 and 4 μg/mL inclusive, and D represents an MIC of <1 μg/mL. NT=Not Tested.

[5] = system: S. aureus USA400; assay: broth microdilution MIC assay, S. aureus USA 400; conditions: Staphylococcus aureus, Table 4
Method: as §2, §3

[6] = system: clinical isolate P. aeruginosa PA 8; assay: broth microdilution MIC assay, P. aeruginosa PA 8; conditions: Pseudomonas aeruginosa, P. aeruginosa PA8
Method in brief: as §1

[7] = system: E. coli ATCC 25922 (wild-type/QC strain); assay: broth microdilution MIC assay, E. coli ATCC 25922; conditions: Escherichia coli, ATCC25922, E. coli 25922, read-out: E. coli 25922 MIC
Method in brief: as §1

[8] = system: P. aeruginosa ΔmexAB-OprM (an efflux pump knockout); assay: broth microdilution MIC assay, P. aeruginosa ΔmexAB-OprM; conditions: Pseudomonas aeruginosa, 20 h, read-out: P. aeruginosa ΔmexAB-OprM MIC
Method in brief: as §1

[9] = system: S. aureus USA600; assay: broth microdilution MIC assay, S. aureus USA 600; conditions: Staphylococcus aureus; Table 4; S. aureus USA600; read-out: S. aureus USA600 MIC
Method in brief: as §1

[10] = system: P. aeruginosa 35151 (hyper-permeable strain); assay: broth microdilution MIC assay, P. aeruginosa 35151; conditions: Pseudomonas aeruginosa, read-out: P. aeruginosa 35151 MIC
Method in brief: as §1

[11] = system: S. aureus ATCC 29213 (methicillin sensitive); assay: broth microdilution MIC assay, S. aureus ATCC 29213; conditions: Staphylococcus aureus, ATCC 29213 / MSSA; Table 3; S. aureus 29213 (MSSA); read-out: S. aureus 29213 (MSSA) MIC
Method: as §2, §3

[12] = ATCC 33591 / MRSA, Table 3, S. aureus 33591 (MRSA), read-out: S. aureus 33591 (MRSA) MIC
[13] = ATCC33591, Table 4, S. aureus 33591, read-out: S. aureus 33591 MIC

MIC [2, 12] [µg/mL]	MIC ([3]; Table 3) [µg/mL]	MIC ([6]; Table 3) [µg/mL]	MIC ([7]; Table 3) [µg/mL]	Structure (SMILES)	MIC [1] [µg/mL]	MIC [2, 13] [µg/mL]	MIC ([3]; Table 5) [µg/mL]	MIC [4] [µg/mL]	MIC [5] [µg/mL]	MIC ([6]; Table 5) [µg/mL]	MIC ([7]; Table 4) [µg/mL]	MIC [8] [µg/mL]	MIC [9] [µg/mL]	MIC [10] [µg/mL]	MIC [11] [µg/mL]
> 32	8 to 32	8 to 32	< 1	C[C@@H](O)[C@H]1C(=O)N2C(C(=O)O)=C(S[C@@H]3CCN(CCCN)C3)[C@H](C)[C@H]12 [Example 36, (4R,5S,6S)-3-(((R)-1-(3-aminopropyl)pyrrolidin-3-yl)thio)-6-((R)-1-hydroxyethyl)-4-methyl-7-oxo-1-azabicyclo[3.2.0]hept-2-ene-2-carboxylic acid]	8 to 32	> 32	8 to 32	> 32	8 to 32	8 to 32	< 1				
				C[C@@H](O)[C@H]1C(=O)N2C(C(=O)O)=C(S[C@@H]3CCN(C[C@@H]4CCNC4)C3)[C@H](C)[C@H]12 [Example 53, (4R,5S,6S)-6-((R)-1-hydroxyethyl)-4-methyl-7-oxo-3-(((R)-1-(((R)-pyrrolidin-3-yl)methyl)pyrrolidin-3-yl)thio)-1-azabicyclo[3.2.0]hept-2-ene-2-carboxylic acid]	1 to 4	1 to 4	1 to 4	8 to 32		1 to 4	< 1	1 to 4	1 to 4	< 1	
				C[C@@H](O)[C@H]1C(=O)N2C(C(=O)O)=C(SC3CN(CC4CCNCC4)C3)[C@H](C)[C@H]12 [Example 42, (4R,5S,6S)-6-((R)-1-hydroxyethyl)-4-methyl-7-oxo-3-((1-(piperidin-4-ylmethyl)azetidin-3-yl)thio)-1-azabicyclo[3.2.0]hept-2-ene-2-carboxylic acid]	1 to 4	1 to 4	1 to 4	8 to 32	1 to 4	1 to 4	< 1	1 to 4	1 to 4	< 1	
				C[C@@H](O)[C@H]1C(=O)N2C(C(=O)O)=C(S[C@@H]3CCN(C[C@H]4CNCCO4)C3)[C@H](C)[C@H]12 [Example 50, (4R,5S,6S)-6-((R)-1-hydroxyethyl)-4-methyl-3-(((R)-1-(((R)-morpholin-2-yl)methyl)pyrrolidin-3-yl)thio)-7-oxo-1-azabicyclo[3.2.0]hept-2-ene-2-carboxylic acid]	1 to 4	1 to 4	1 to 4	8 to 32		1 to 4	< 1	1 to 4	1 to 4	< 1	
				C[C@@H](O)[C@H]1C(=O)N2C(C(=O)O)=C(S[C@@H]3CCN(C[C@H]4CCNC4)C3)[C@H](C)[C@H]12 [Example 51, (4R,5S,6S)-6-((R)-1-hydroxyethyl)-4-methyl-7-oxo-3-(((R)-1-(((S)-pyrrolidin-3-yl)methyl)pyrrolidin-3-yl)thio)-1-azabicyclo[3.2.0]hept-2-ene-2-carboxylic acid]	1 to 4	1 to 4	1 to 4	8 to 32		1 to 4	< 1	1 to 4	1 to 4	< 1	
8 to 32	8 to 32	8 to 32	< 1	C[C@@H](O)[C@H]1C(=O)N2C(C(=O)O)=C(S[C@@H]3CCN(C4CCC(N)(CN)CC4)C3)[C@H](C)[C@H]12 (stereo partly drawn) [Example 38, (4R,5S,6S)-3-(((R)-1-(4-amino-4-(aminomethyl)cyclohexyl)pyrrolidin-3-yl)thio)-6-((R)-1-hydroxyethyl)-4-methyl-7-oxo-1-azabicyclo[3.2.0]hept-2-ene-2-carboxylic acid]	8 to 32	8 to 32	8 to 32	8 to 32	1 to 4	8 to 32	< 1				
				C[C@@H](O)[C@H]1C(=O)N2C(C(=O)O)=C(SC3CCN(CC4CCNCC4)CC3)[C@H](C)[C@H]12 [Example 44, (4R,5S,6S)-6-((R)-1-hydroxyethyl)-4-methyl-7-oxo-3-((1-(piperidin-4-ylmethyl)piperidin-4-yl)thio)-1-azabicyclo[3.2.0]hept-2-ene-2-carboxylic acid]	1 to 4	8 to 32	8 to 32	8 to 32	1 to 4	8 to 32	1 to 4	1 to 4		< 1	
				C[C@@H](O)[C@H]1C(=O)N2C(C(=O)O)=C(S[C@@H]3CCN(C[C@@H]4CNCCO4)C3)[C@H](C)[C@H]12 [Example 49, (4R,5S,6S)-6-((R)-1-hydroxyethyl)-4-methyl-3-(((R)-1-(((S)-morpholin-2-yl)methyl)pyrrolidin-3-yl)thio)-7-oxo-1-azabicyclo[3.2.0]hept-2-ene-2-carboxylic acid]	1 to 4	8 to 32	8 to 32	8 to 32		1 to 4	< 1	1 to 4	1 to 4	< 1	
8 to 32	1 to 4	8 to 32	< 1	CNCCCCN1CC[C@@H](SC2=C(C(=O)O)N3C(=O)[C@H]([C@@H](C)O)[C@H]3[C@H]2C)C1 [Example 37, (4R,5S,6S)-6-((R)-1-hydroxyethyl)-4-methyl-3-(((R)-1-(4-(methylamino)butyl)pyrrolidin-3-yl)thio)-7-oxo-1-azabicyclo[3.2.0]hept-2-ene-2-carboxylic acid]	8 to 32	8 to 32	1 to 4	8 to 32	1 to 4	1 to 4	< 1				

Structure (SMILES)	MIC [2, 12] [µg/mL]	MIC ([3]; Table 3) [µg/mL]	MIC ([6]; Table 3) [µg/mL]	MIC ([7]; Table 3) [µg/mL]	MIC [1] [µg/mL]	MIC [2, 13] [µg/mL]	MIC ([3]; Table 5) [µg/mL]	MIC [4] [µg/mL]	MIC [5] [µg/mL]	MIC ([6]; Table 5) [µg/mL]	MIC ([7]; Table 4) [µg/mL]	MIC [8] [µg/mL]	MIC [9] [µg/mL]	MIC [10] [µg/mL]	MIC [11] [µg/mL]
C[C@@H](O)[C@H]1C(=O)N2C(C(=O)O)=C(S[C@@H]3CCN(CC4CCN(C(=N)N)CC4)C3)[C@H](C)[C@H]12 [Example 35, (4R,5S,6S)-3-(((R)-1-((1-carbamimidoylpiperidin-4-yl)methyl)pyrrolidin-3-yl)thio)-6-((R)-1-hydroxyethyl)-4-methyl-7-oxo-1-azabicyclo[3.2.0]hept-2-ene-2-carboxylic acid]	1 to 4	1 to 4	1 to 4	< 1	< 1	1 to 4	1 to 4	8 to 32	1 to 4	1 to 4	< 1	< 1	< 1	< 1	1 to 4
